Laboratory results taken from PMC9573605, “Exploring Nitric Oxide (NO)-Releasing Celecoxib Derivatives as Modulators of Radioresponse in Pheochromocytoma Cells” (Molecules, 2022).

Experiments:
[1] = Lipophilicity logD7.4 by HPLC method; type: physicochemical; conditions: HPLC retention on ODP-50 4B column (Shodex Asahipak), phosphate buffer pH 7.4
Procedure: The lipophilicity of all synthesized compounds was determined as logD7.4, HPLC value by an HPLC method originally described by Donovan and Pescatore.
The logD7.4HPLC value was determined as previously reported by us utilizing an HPLC method originally described by Donovan and Pescatore.

[2] = Fluorometric NO release assay (Griess assay); type: physicochemical; conditions: 24 h, 37 °C, relative to initial molar amount of compound
Procedure: The nitric oxide releasing properties of the nitroester-derivatives 5a–d, 5f, and 6a–d were evaluated using a fluorometric Griess assay in the presence and absence of cysteine to determine thiol-dependent and spontaneous release of nitric oxide (Figure 3).
Nitric oxide release of compounds within 24 h at 37 °C was measured using the fluorometric nitric oxide microplate assay kit ab65327 (Abcam, Cambridge, UK). For measurement of spontaneous release, 1.8 nmol of compounds were incubated in 75 µL Dulbecco’s PBS containing 0.05% v/v residual DMSO and 2.5 mM DTPA (pH = 7.1) for 24 h at 37 °C. Thiol-dependent release was measured accordingly in presence of 2.5 mM cysteine. Two series of nitrate standards were prepared (0.2−1 nmol) in 75 µL incubation buffer, in presence or absence of cysteine, respectively. According to the manufacturer’s instructions, all nitrate content in samples and standards was enzymatically converted into nitrite through incubation with nitrate reductase for 2 h at room temperature, and the resulting nitrite content (total nitric oxide) was determined through reaction with 2,3-diaminonaphthalene followed by measurement of fluorescence intensity at λex/em = 360/450 nm using a microplate reader. Nitrite content in samples was calculated from linear regression of standards and expressed as relative nitric oxide release (%) normalized to the initial molar amount of compound. NONOate served as positive control.
Figure 3 Spontaneous and thiol-dependent NO^• release from NO-COXIBs; measured using fluorometric Griess assay (n = 2); relative release indicates the percentage of soluble nitrogen species (nitrate + nitrite) detected in the incubation buffer after 24 h compared to the initial molar amount of compounds; NO^• release of NONOate (positive control) exceeded the maximum detection limit; data presented as mean ± range.

[3] = tested on: MPC-HIF2α tumor spheroids; assay: Spheroid regrowth assay with [177Lu]LuCl3 treatment; type: cell-based, mouse; conditions: 10 µM compound with 0.25 MBq [177Lu]LuCl3 for six days; for 14-day regrowth probability: controls 50%
Excerpt: Radionuclide therapy is a fast-evolving treatment modality gaining more importance in treating cancer. For treatment of pheochromocytomas and paragangliomas, in particular, somatostatin type 2 receptor-targeted radionuclide therapy with [^177Lu]Lu-(Tyr^3)octreotate is currently investigated in clinical controlled trials (e.g., NCT04029428, NCT03923257, NCT03206060). To assess the additional effects of NO-COXIBs on the outcome of Lu-177 therapy, a simplified in vitro setup was used here, where MPC-HIF2α tumor spheroids were treated with 10 µM of the compounds and simultaneously 0.25 MBq of [^177Lu]LuCl3 for six days.
(§1) Genetically modified mouse pheochromocytoma (MPC) cells expressing a codon-optimized Epas1 gene (encoding HIF2α) were cultured as three-dimensional tumor spheroids as published elsewhere. External X-ray beam radiation treatment and [^177Lu]LuCl3 radionuclide treatment was performed as reported previously with some modifications. In brief, spheroids were irradiated with a 200 kV photon beam using a Maxishot X-ray system equipped with a Y.TU/320-D03 tube (YXLON, Hamburg, Germany), growth of spheroids (n = 6) with diameters between 300−400 µm was measured in response to one fixed radiation dose, 15 Gy for X-ray treatment, and 0.25 MBq/mL of [^177Lu]LuCl3 for radionuclide treatment corresponding to a cumulative dose of approximately 2 Gy delivered for 6 days. The applied radiation doses were selected based on the half-maximal spheroid control doses (SCD50) as previously determined for MPC HIF2α spheroids by us. Spheroids were considered as regrown at 100 µm increase in diameter compared to treatment start or at a diameter growth rate of 15 µm per day. Results are reported as spheroid regrowth probability (%).
(§2) Figure 5 Effects of NO-COXIBs on radiation treatments of MPC-HIF2α tumor spheroids. (A) Growth responses to X-ray treatment with a radiation dose of 15 Gy in combination with 10 µM NO-COXIBs added to the medium at indicated time points before or after irradiation. (B) Growth responses to [^177Lu]LuCl3 treatment with an initial activity concentration of 0.25 MBq/mL in combination with NO-COXIBs; log2 fold changes in diameter indicate the number of diameter doublings compared to treatment start; 14-day regrowth probability indicates the fraction of spheroids able to regrow within 14 days after treatment start; (black arrows) time point or duration of radiation treatment; (w/o) vehicle controls are shown as black lines; (Ce) celecoxib.

MPC-HIF2a spheroids = assay: Growth of non-irradiated tumor spheroids; type: cell-based, mouse; conditions: 10 µM compound, linear regression between 0 and 9 days
Procedure: (§3) As a first pilot study, growth responses of MPC-HIF2α spheroids were investigated after two different radiation treatments such as single-dose external beam irradiation (X-ray) and incubation with [^177Lu]LuCl3, respectively. NO-COXIBs were tested at 10 µM for additional effects on radiation treatments against a vehicle-treated control (w/o) and celecoxib (Ce).
4. Growth-rate of tumor spheroids in the presence of NO -COXIBS without radiation treatment
Compound Diameter growth rate
Table S2. Effects of NO-COXIBs on spheroid growth; diameter growth rates of non-irradiated MPC-HIF2a spheroids in presence of 10 µM of compounds determined from linear regression between 0 and 9 days after treatment start; (w/o) vehicle control treated with DMSO

A2058 cells = tested on: A2058 cells; parameters: method as in PMID 26081289; conditions: 10 µM, DMSO control 6.6 Gy; cited from earlier work
[4] = tested on: MPC-HIF2α tumor spheroids; assay: Spheroid regrowth assay with external X-ray irradiation; type: cell-based, mouse; conditions: X-ray 15 Gy; 10 µM compound added 2 h post irradiation; controls 83%
Procedure: as §3
The log2-fold change in spheroid diameter is given as a standardized parameter for spheroid growth, which is positive for growing, near zero for stagnating and negative for shrinking spheroids. Furthermore, regrowth probabilities are given as a parameter to compare how many of the overall studied spheroids in one group recovered within 14 days. Radioprotective effects occurred when compounds were added 2 h before irradiation. In this setup, all compounds accelerated the increase in spheroid size during the regrowth phase compared to controls (Figure 5A, upper panel). Regrowth probabilities of 67–100% under NO-COXIB treatment remained however similar to controls (83%). Radiosensitizing effects occurred when compounds were added 2 h post irradiation. In this setup, all compounds decelerated the increase in spheroid size during the regrowth phase compared to controls.
as §1, §2

Mel-Juso cells = tested on: Mel-Juso cells; parameters: method as in PMID 26081289; conditions: 10 µM, DMSO control 4.2 Gy; cited from earlier work
[5] = parameters: method as in PMID 25547413; conditions: cited from earlier work

Row | Compound | chromatographic logD [1] | thiol-dependent NO release ([2]; 2.5 mM cysteine) | spontaneous NO release ([2]; absence of cysteine) | growth response (spheroid size) ([3]; compared to controls) | 14-day regrowth probability [3] | Diameter growth rate ± SEM (MPC-HIF2a spheroids) | required radiation dose for 10% survival (A2058 cells) | 14-day regrowth probability [4] | required radiation dose for 10% survival (Mel-Juso cells) | scavenging effects on OH•, O2•−, and OCl- [5]
1 | Cc1ccc(-c2c(Cl)c(CO[N+](=O)[O-])nn2-c2ccc(S(N)(=O)=O)cc2)cc1 [5a, [4-Chloro-1-(4-sulfamoylphenyl)-5-(p-tolyl)-1H-pyrazol-3-yl]methyl nitrate] | 3.76 | 29–53% | 10–22% | prevented spheroids from shrinking in size | 60–80% | 54.1 ± 5.2 µm/day | 5.2 Gy | 17% | 3.2 Gy | –
2 | Cc1ccc(-c2cc(C(F)(F)F)nn2-c2ccc(S(N)(=O)=O)cc2)cc1 [celecoxib] | – | – | – | – | 40% | 57.3 ± 4.0 µm/day | – | 0% | – | did not show any scavenging effects
